Laboratory results reported in ChEMBL document CHEMBL6109060, “Potent HIV‑1 protease inhibitors containing oxabicyclo octanol-derived P2-ligands: Design, synthesis, and X‑ray structural studies of inhibitor-HIV-1 protease complexes” (Bioorg Med Chem Lett, 2025).

Experiments:
[1] = molecular target: Human immunodeficiency virus type 1 protease (Human immunodeficiency virus 1, UniProt Q72874); test: Inhibition of HIV-1 protease using Abz-Thr-Ile-Nle-Phe-(p-NO2)-Gln-Arg-NH2 as substrate preincubated for 5 to 10 mins followed by substrate addition and measured after 1 hr by spectrofluorometric assay
[2] = tested on: Human immunodeficiency virus 1; test: Antiviral activity against HIV-1 LAI infected in human MT2 cells reduction in virus-induced cytopathic effect measured after 7 days by MTT assay; assay type: functional, organism-based; conditions: Human immunodeficiency virus 1, LAI, MT2, 168 h

SMILES | Ki [1] [nM] | EC50 [2] [nM]
COc1ccc(S(=O)(=O)N(CC(C)C)C[C@@H](O)[C@H](Cc2ccccc2)NC(=O)O[C@H]2CC[C@@H]3C[C@H]4CO[C@@H](C(C)C)[C@@]42O3)cc1 | 855 | –
COc1ccc(S(=O)(=O)N(CC(C)C)C[C@@H](O)[C@H](Cc2ccccc2)NC(=O)O[C@@H]2CC[C@@H]3C[C@H]4CO[C@@H](C(C)C)[C@@]42O3)cc1 | 620 | > 1000
COc1ccc(S(=O)(=O)N(CC(C)C)C[C@@H](O)[C@H](Cc2ccccc2)NC(=O)O[C@@H]2CC[C@@H]3C[C@H]4CO[C@@H](C)[C@@]42O3)cc1 | 20.6 | > 1000
COc1ccc(S(=O)(=O)N(CC(C)C)C[C@@H](O)[C@H](Cc2ccccc2)NC(=O)O[C@H]2CC[C@@H]3C[C@H]4CO[C@@H](c5ccccc5)[C@@]42O3)cc1 | 43 | > 1000
COc1ccc(S(=O)(=O)N(CC(C)C)C[C@@H](O)[C@H](Cc2ccccc2)NC(=O)O[C@H]2CC[C@@H]3C[C@H]4CO[C@@H](C)[C@@]42O3)cc1 | 1.65 | 240
COc1ccc(S(=O)(=O)N(CC(C)C)C[C@@H](O)[C@H](Cc2ccccc2)NC(=O)O[C@@H]2CC[C@@H]3C[C@H]4CO[C@@H](c5ccccc5)[C@@]42O3)cc1 | 1300 | > 1000
COc1ccc(S(=O)(=O)N(CC(C)C)C[C@@H](O)[C@H](Cc2ccccc2)NC(=O)O[C@@H]2CC[C@H]3C[C@@H]4CO[C@H](c5ccccc5)[C@]42O3)cc1 | 272 | > 1000
COc1ccc(S(=O)(=O)N(CC(C)C)C[C@@H](O)[C@H](Cc2ccccc2)NC(=O)O[C@H]2CC[C@H]3C[C@@H]4CO[C@H](c5ccccc5)[C@]42O3)cc1 | 424 | > 1000
